Results: US20190047966A1, “NOVEL COMPOUND AND PHARMACOLOGICALLY ACCEPTABLE SALT THEREOF” (MEIJI SEIKA PHARMA CO., LTD., priority 2016, published 2019)
Counter-ions that a name gives are not always drawn.

How the values were obtained:
[1] = molecular target: human histamine H1 receptor (Homo sapiens, UniProt P35367); experiment: Evaluation of Human H1 Receptor Affinity ([3H]pyrilamine binding); set-up: purchased PerkinElmer Inc; host or cells: CHO-K1; conditions: inhibition constant Ki, CHO-K1 membrane preparation
Sequence of human histamine H1 receptor (P35367 whole entry): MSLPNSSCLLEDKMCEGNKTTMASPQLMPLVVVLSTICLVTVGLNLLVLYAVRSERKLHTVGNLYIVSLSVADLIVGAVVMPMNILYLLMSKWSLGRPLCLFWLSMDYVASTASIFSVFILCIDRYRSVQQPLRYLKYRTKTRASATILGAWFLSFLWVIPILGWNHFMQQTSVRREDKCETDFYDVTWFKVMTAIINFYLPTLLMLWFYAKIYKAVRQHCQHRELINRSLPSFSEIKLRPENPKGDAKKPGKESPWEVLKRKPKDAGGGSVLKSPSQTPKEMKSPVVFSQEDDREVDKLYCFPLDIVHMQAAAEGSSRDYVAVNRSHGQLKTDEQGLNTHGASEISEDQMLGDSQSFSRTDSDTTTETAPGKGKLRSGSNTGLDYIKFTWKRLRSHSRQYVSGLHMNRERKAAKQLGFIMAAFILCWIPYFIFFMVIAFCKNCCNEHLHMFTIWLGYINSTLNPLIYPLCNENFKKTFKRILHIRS
Method in brief: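 Ki values are Cheng-Prusoff conversions of IC50 (Kd 1.1 nM) from radioligand displacement of 1.2 nM [3H]pyrilamine, with 1.0 μM pyrilamine defining nonspecific binding.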

[2] = molecular target: T1, human histamine H4 receptor (Homo sapiens, UniProt Q9H3N8); experiment: Evaluation of Human H4 Receptor Affinity ([3H]histamine binding); conditions: inhibition constant Ki, CHO-K1 membrane preparation, read-out: Evaluation of H4 Receptor Affinity
T1 construct: purchased PerkinElmer Inc; host or cells: CHO-K1
Method in brief: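 Membranes from CHO-K1 cells expressing human H4 receptor incubated with 8.2 nM [3H]histamine and compound for 90 min at 25 °C in 50 mM Tris-HCl pH 7.4, 1.25 mM EDTA, then filtered and counted. Nonspecific binding defined with 1.0 μM histamine; Ki from IC50 by Cheng-Prusoff using Kd 5.7 nM.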

Row | Compound | Ki [1] | Ki [2]
1 | COC(=O)c1ccc(F)c(COCCN2CCN(c3nc(N)nc4c3CCc3cc(OCc5ccc(Cl)cc5)ccc3-4)CC2)c1 [129(a), methyl 3-((2-(4-(2-amino-8-((4-chlorobenzyl)oxy)-5,6-dihydrobenzo[h]quinazolin-4-yl)piperazin-1-yl)ethoxy)methyl)-4-fluorobenzoate] | < 100 nM | 100 to 500 nM
2 | Nc1nc2c(c(N3CCN(CCCCOc4ccc(C(=O)O)cc4)CC3)n1)CCc1cc(OCc3ccc(Cl)cc3)ccc1-2 [Example 134, 4-(4-(4-(2-amino-8-((4-chlorobenzyl)oxy)-5,6-dihydrobenzo[h]quinazolin-4-yl)piperazin-1-yl)butoxy)benzoic acid hydrochloride] | < 100 nM | 100 to 500 nM
3 | CC(OCCOCCN1CCN(c2nc(N)nc3c2CCc2cc(OCc4ccc(Cl)cc4)ccc2-3)CC1)C(=O)O (stereo not shown) [Example 121, 2-(2-(2-(4-(2-amino-8-((4-chlorobenzyl)oxy)-5,6-dihydrobenzo[h]quinazolin-4-yl)piperazin-1-yl)ethoxy)ethoxy)propanoic acid dihydrochloride] | < 100 nM | 100 to 500 nM
4 | CN1CCN(c2nc(N)nc3c2CCc2cc(OCC4CCOCC4)ccc2-3)CC1 [Example 199, 4-(4-methylpiperazin-1-yl)-8-((tetrahydro-2H-pyran-4-yl)methoxy)-5,6-dihydrobenzo[h]quinazolin-2-amine] | 100 to 500 nM | 100 to 500 nM
5 | Nc1nc2c(c(N3CCN(CCO[C@H]4CC[C@H](C(=O)O)CC4)CC3)n1)CCc1cc(OCc3ccc(Cl)cc3)ccc1-2 [Example 28, trans-4-(2-(4-(2-amino-8-((4-chlorobenzyl)oxy)-5,6-dihydrobenzo[h]quinazolin-4-yl)piperazin-1-yl)ethoxy)cyclohexane-1-carboxylic acid] | < 100 nM | < 100 nM
6 | CN(C)[C@@H]1CCN(c2nc(N)nc3c2CCc2cc(OCc4ccccc4)ccc2-3)C1 [Example 103, (R)-8-(benzyloxy)-4-(3-(dimethylamino)pyrrolidin-1-yl)-5,6-dihydrobenzo[h]quinazolin-2-amine] | 100 to 500 nM | < 100 nM
7 | CN1CCN(c2nc(N)nc3c2CCc2cc(NS(=O)(=O)C4CCCCC4)ccc2-3)CC1 [Example 56, N-(2-amino-4-(4-methylpiperazin-1-yl)-5,6-dihydrobenzo[h]quinazolin-8-yl)cyclohexanesulfonamide] | 100 to 500 nM | 100 to 500 nM
8 | Nc1nc2c(c(N3CCN(CCOc4ccc(CC(=O)O)cc4)CC3)n1)CCc1cc(OCc3ccc(Cl)cc3)ccc1-2 [Example 137, 2-(4-(2-(4-(2-amino-8-((4-chlorobenzyl)oxy)-5,6-dihydrobenzo[h]quinazolin-4-yl)piperazin-1-yl)ethoxy)phenyl)acetic acid dihydrochloride] | < 100 nM | < 100 nM
9 | Nc1nc2c(c(N3CCN(CCc4ccc(OCC(=O)O)cc4)CC3)n1)CCc1cc(OCc3ccc(Cl)cc3)ccc1-2 [Example 140, 2-(4-(2-(4-(2-amino-8-((4-chlorobenzyl)oxy)-5,6-dihydrobenzo[h]quinazolin-4-yl)piperazin-1-yl)ethyl)phenoxy)acetic acid dihydrochloride] | < 100 nM | 100 to 500 nM
10 | Nc1nc2c(c(N3CCN(CCOCCOCC(=O)O)CC3)n1)CCc1cc(OCc3ccc(F)cc3)ccc1-2 [Example 124, 2-(2-(2-(4-(2-amino-8-((4-fluorobenzyl)oxy)-5,6-dihydrobenzo[h]quinazolin-4-yl)piperazin-1-yl)ethoxy)ethoxy)acetic acid] | < 100 nM | < 100 nM
11 | Nc1nc2c(c(N3CCN(CCO[C@H]4C[C@H](C(=O)O)C4)CC3)n1)CCc1cc(OCc3ccc(OC(F)(F)F)cc3)ccc1-2 [Example 30, trans-3-(2-(4-(2-amino-8-((4-(trifluoromethoxy)benzyl)oxy)-5,6-dihydrobenzo[h]quinazolin-4-yl)piperazin-1-yl)ethoxy)cyclobutane-1-carboxylic acid] | < 100 nM | < 100 nM
12 | trans-4-((2-(4-(2-amino-8-((4-cyanobenzyl)oxy)-5,6-dihydrobenzo[h]quinazolin-4-yl)piperazin-1-yl)ethoxy)cyclohexane-l-carboxylic acid [Example 213] | < 100 nM | 100 to 500 nM

Other lines, results leading:

Row | Ki [1] | Ki [2] | Compound
13 | < 100 nM | < 100 nM | CN1CCN(c2nc(N)nc3c2CCc2cc(OCc4ccc(Br)cc4)ccc2-3)CC1 [Example 197, 8-((4-bromobenzyl)oxy)-4-(4-methylpiperazin-1-yl)-5,6-dihydrobenzo[h]quinazolin-2-amine]
14 | < 100 nM | < 100 nM | Nc1nc2c(c(N3CCN(CCO[C@H]4C[C@@H](C(=O)O)C4)CC3)n1)CCc1cc(OCc3ccc(OC(F)F)cc3)ccc1-2 [Example 210, cis-3-(2-(4-(2-amino-8-((4-(difluoromethoxy)benzyl)oxy)-5,6-dihydrobenzo[h]quinazolin-4-yl)piperazin-1-yl)ethoxy)cyclobutane-1-carboxylic acid]
15 | < 100 nM | 100 to 500 nM | Nc1nc2c(c(N3CCN(CCOCc4ccc(C(=O)O)s4)CC3)n1)CCc1cc(OCc3ccc(OC(F)(F)F)cc3)ccc1-2 [Example 182, 5-((2-(4-(2-amino-8-((4-(trifluoromethoxy)benzyl)oxy)-5,6-dihydrobenzo[h]quinazolin-4-yl)piperazin-1-yl)ethoxy)methyl)thiophene-2-carboxylic acid]
16 | < 100 nM | 100 to 500 nM | Nc1nc2c(c(N3CCN(CCO[C@@H]4C[C@@H]5[C@H](C4)[C@@H]5C(=O)O)CC3)n1)CCc1cc(OCc3ccc(OC(F)(F)F)cc3)ccc1-2 [Example 148, (1R,3s,5S,6s)-3-(2-(4-(2-amino-8-((4-(trifluoromethoxy)benzyl)oxy)-5,6-dihydrobenzo[h]quinazolin-4-yl)piperazin-1-yl)ethoxy)bicyclo[3.1.0]hexane-6-carboxylic acid]
17 | < 100 nM | 100 to 500 nM | CCS(=O)(=O)NCCCCN1CCN(c2nc(N)nc3c2CCc2cc(OCc4ccccc4)ccc2-3)CC1 [Example 105, N-(4-(4-(2-amino-8-(benzyloxy)-5,6-dihydrobenzo[h]quinazolin-4-yl)piperazin-1-yl)butyl)ethanesulfonamide bis(trifluoroacetate)]
18 | 100 to 500 nM | 100 to 500 nM | COC(=O)c1ccc(S(=O)(=O)Nc2ccc3c(c2)CCc2c-3nc(N)nc2N2CCN(C)CC2)cc1 [Example 55, methyl 4-(N-(2-amino-4-(4-methylpiperazin-1-yl)-5,6-dihydrobenzo[h]quinazolin-8-yl)sulfamoyl)benzoate]
19 | < 100 nM | < 100 nM | CC(Oc1ccc2c(c1)CCc1c-2nc(N)nc1N1CCN(CCO[C@H]2C[C@@H](C(=O)O)C2)CC1)c1ccc(OC(F)(F)F)cc1 (relative stereo) [Example 209, cis-3-(2-(4-(2-amino-8-(1-(4-(trifluoromethoxy)phenyl)ethoxy)-5,6-dihydrobenzo[h]quinazolin-4-yl)piperazin-1-yl)ethoxy)cyclobutane-1-carboxylic acid]
20 | 100 to 500 nM | 100 to 500 nM | CN1CCN(c2nc(N)nc3c2CCc2cc(NS(=O)(=O)c4ccc(C#N)cc4)ccc2-3)CC1 [Example 47, N-(2-amino-4-(4-methylpiperazin-1-yl)-5,6-dihydrobenzo[h]quinazolin-8-yl)-4-cyanobenzenesulfonamide]
21 | < 100 nM | < 100 nM | CN1CCCN(c2nc(N)nc3c2CCc2cc(NS(=O)(=O)c4ccc(OC(F)(F)F)cc4)ccc2-3)CC1 [Example 193, N-(2-amino-4-(4-methyl-1,4-diazepan-1-yl)-5,6-dihydrobenzo[h]quinazolin-8-yl)-4-(trifluoromethoxy)benzenesulfonamide bis(trifluoroacetate)]
22 | < 100 nM | < 100 nM | Nc1nc2c(c(N3CCN(CCCOCc4nnn[nH]4)CC3)n1)CCc1cc(OCc3ccc(Cl)cc3)ccc1-2 [Example 144, 4-(4-(3-((tetrazol-5-yl)methoxy)propyl)piperazin-1-yl)-8-((4-chlorobenzyl)oxy)-5,6-dihydrobenzo[h]quinazolin-2-amine bis(trifluoroacetate)]
23 | < 100 nM | 100 to 500 nM | Nc1nc2c(c(N3CCN(CCO[C@H]4CC[C@H]5[C@H](C(=O)O)[C@H]54)CC3)n1)CCc1cc(OCc3ccc(OC(F)(F)F)cc3)ccc1-2 [Example 181, (1S,25,5R,65)-2-(2-(4-(2-amino-8-((4-(trifluoromethoxy)benzyl)oxy)-5,6-dihydrobenzo[h]quinazolin-4-yl)piperazin-1-yl)ethoxy)bicyclo[3.1.0]hexane-6-carboxylic acid]
24 | < 100 nM | < 100 nM | CCC(OCCOCCN1CCN(c2nc(N)nc3c2CCc2cc(OCc4ccc(Cl)cc4)ccc2-3)CC1)C(=O)O (stereo not shown) [Example 126, 2-(2-(2-(4-(2-amino-8-((4-chlorobenzyl)oxy)-5,6-dihydrobenzo[h]quinazolin-4-yl)piperazin-1-yl)ethoxy)ethoxy)butanoic acid]
25 | < 100 nM | < 100 nM | Nc1nc2c(c(N3CCN(CCOCC4CN(C5=NS(=O)(=O)N=C5O)C4)CC3)n1)CCc1cc(OCc3ccc(OC(F)(F)F)cc3)ccc1-2 [Example 190(b), 3-(3-((2-(4-(2-amino-8-((4-(trifluoromethoxy)benzyl)oxy)-5,6-dihydrobenzo[h]quinazolin-4-yl)piperazin-1-yl)ethoxy)methyl)azetidin-1-yl)-4-hydroxy-1,2,5-thiadiazole 1,1-dioxide]
26 | 100 to 500 nM | < 100 nM | CN1CCN(c2nc(N)nc3c2CCc2cc(NC(=O)Nc4ccc(Cl)cc4)ccc2-3)CC1 [Example 195, 1-(2-amino-4-(4-methylpiperazin-1-yl)-5,6-dihydrobenzo[h]quinazolin-8-yl)-3-(4-chlorophenyl)urea]
